Source: ChEMBL document CHEMBL1671637, “Development, stability, and molecular mechanisms of macrolide resistance in Campylobacter jejuni” (2008)
Values after ≈ are worked out from the molar mass of the structure shown.

Assays:
Campylobacter jejuni [1] = experiment: Antimicrobial activity against Campylobacter jejuni JL277 selected at 4 to 16 times MIC after 3 to 4 days by agar dilution method; format: functional
Campylobacter jejuni [2] = experiment: Antimicrobial activity against Campylobacter jejuni JL283 selected at 4 to 16 times MIC after 3 to 4 days by agar dilution method; format: functional
Campylobacter jejuni [3] = experiment: Antimicrobial activity against Campylobacter jejuni DC12 harboring protein L4 G74D mutant by agar dilution method; format: functional
Campylobacter jejuni [4] = experiment: Antimicrobial activity against Campylobacter jejuni JL301 harboring protein L22 with insertion of amino acid TSH at position 98 selected at 4 to 16 times MIC after 3 to 4 days by agar dilution method; format: functional
Campylobacter jejuni [5] = experiment: Antimicrobial activity against Campylobacter jejuni JL308 harboring protein L22 with insertion of amino acid TSH at position 98 selected at 4 to 16 times MIC after 3 to 4 days by agar dilution method; format: functional
Campylobacter jejuni [6] = experiment: Antimicrobial activity against Campylobacter jejuni JL289 harboring 23S rRNA A2074C mutant selected at 4 to 16 times MIC after 3 to 4 days by agar dilution method; format: functional
Campylobacter jejuni [7] = experiment: Antimicrobial activity against Campylobacter jejuni DC10 harboring protein L4 G57D mutant by agar dilution method; format: functional
Campylobacter jejuni [8] = experiment: Antimicrobial activity against Campylobacter jejuni JL290 harboring protein L22 with insertion of amino acid TSH at position 98 selected at 8 ug/ml after 3 to 4 days by agar dilution method; format: functional
Campylobacter jejuni [9] = experiment: Antimicrobial activity against Campylobacter jejuni DC21 harboring protein L4 G74D mutant by agar dilution method; format: functional
Campylobacter jejuni [10] = experiment: Antimicrobial activity against Campylobacter jejuni DC7 harboring protein L4 G74D mutant by agar dilution method; format: functional
Campylobacter jejuni [11] = experiment: Antimicrobial activity against Campylobacter jejuni DC24 harboring protein L4 G74D mutant by agar dilution method; format: functional
Campylobacter jejuni [12] = experiment: Antimicrobial activity against Campylobacter jejuni DC2 harboring protein L4 G74D mutant by agar dilution method; format: functional
Campylobacter jejuni [13] = experiment: Antimicrobial activity against Campylobacter jejuni DC1 by agar dilution method; format: functional
Campylobacter jejuni [14] = experiment: Antimicrobial activity against Campylobacter jejuni JL299 harboring protein L22 with insertion of amino acid TSH at position 98 selected at 4 to 16 times MIC after 3 to 4 days by agar dilution method; format: functional
Campylobacter jejuni [15] = experiment: Antimicrobial activity against Campylobacter jejuni DC17 harboring protein L4 G57D mutant by agar dilution method
Campylobacter jejuni [16] = experiment: Antimicrobial activity against Campylobacter jejuni harboring mutation in cmeB by agar dilution method relative to wild type Campylobacter jejuni; format: functional
Campylobacter jejuni [17] = experiment: Antimicrobial activity against Campylobacter jejuni DC18 harboring protein L4 G74D mutant by agar dilution method; format: functional
Campylobacter jejuni [18] = experiment: Antimicrobial activity against Campylobacter jejuni DC30 by agar dilution method; format: functional
Campylobacter jejuni [19] = experiment: Antimicrobial activity against Campylobacter jejuni DC15 harboring protein L4 G74D mutant by agar dilution method; format: functional
Campylobacter jejuni [20] = experiment: Antimicrobial activity against Campylobacter jejuni JL284 selected at 4 to 16 times MIC after 3 to 4 days by agar dilution method; format: functional
Campylobacter jejuni [21] = experiment: Antimicrobial activity against Campylobacter jejuni DC23 harboring protein L4 G74D mutant by agar dilution method; format: functional
Campylobacter jejuni [22] = experiment: Antimicrobial activity against Campylobacter jejuni JL298 selected at 4 to 16 times MIC after 3 to 4 days by agar dilution method; format: functional
Campylobacter jejuni [23] = experiment: Antimicrobial activity against Campylobacter jejuni DC5 harboring protein L4 G74D mutant by agar dilution method; format: functional
Campylobacter jejuni [24] = experiment: Antimicrobial activity against tylosin pre-exposed compound-resistant Campylobacter jejuni; format: functional
Campylobacter jejuni [25] = experiment: Antimicrobial activity against Campylobacter jejuni DC26 infected in 15 days old chicken by agar dilution method in presence of food with tylosin; format: functional
Campylobacter jejuni [26] = experiment: Antimicrobial activity against Campylobacter jejuni DC16 harboring protein L4 G74D mutant by agar dilution method; format: functional
Campylobacter jejuni [27] = experiment: Antimicrobial activity against Campylobacter jejuni DC27 harboring protein L4 G74D mutant by agar dilution method; format: functional
Campylobacter jejuni [28] = experiment: Antimicrobial activity against Campylobacter jejuni JL304 harboring protein L22 with insertion of amino acid TSH at position 98 selected at 4 to 16 times MIC after 3 to 4 days by agar dilution method; format: functional
Campylobacter jejuni [29] = experiment: Antimicrobial activity against Campylobacter jejuni JL276 selected at 4 ug/ml after 3 to 4 days by agar dilution method; format: functional
Campylobacter jejuni [30] = experiment: Antimicrobial activity against Campylobacter jejuni DC28 harboring protein L4 G74D mutant by agar dilution method; format: functional
Campylobacter jejuni [31] = experiment: Antimicrobial activity against Campylobacter jejuni JL294 selected at 4 to 16 times MIC after 3 to 4 days by agar dilution method; format: functional
Campylobacter jejuni [32] = experiment: Antimicrobial activity against Campylobacter jejuni JL307 harboring protein L22 with insertion of amino acid TSH at position 98 selected at 4 to 16 times MIC after 3 to 4 days by agar dilution method; format: functional
Campylobacter jejuni [33] = experiment: Antimicrobial activity against Campylobacter jejuni JL293 selected at 4 to 16 times MIC after 3 to 4 days by agar dilution method; format: functional
Campylobacter jejuni [34] = experiment: Antimicrobial activity against Campylobacter jejuni NCTC 11168 by agar dilution method; format: functional
Campylobacter jejuni [35] = experiment: Antimicrobial activity against Campylobacter jejuni DC4 by agar dilution method; format: functional
Campylobacter jejuni [36] = experiment: Antimicrobial activity against Campylobacter jejuni JL303 harboring protein L22 with insertion of amino acid TSH at position 98 selected at 4 to 16 times MIC after 3 to 4 days by agar dilution method; format: functional
Campylobacter jejuni [37] = experiment: Antimicrobial activity against Campylobacter jejuni DC2 infected in 15 days old chicken by agar dilution method; format: functional
Campylobacter jejuni [38] = experiment: Antimicrobial activity against Campylobacter jejuni DC19 harboring protein L4 G57D mutant by agar dilution method
Campylobacter jejuni [39] = experiment: Antimicrobial activity against Campylobacter jejuni DC2 infected in 3 days old chicken by agar dilution method; format: functional

Molecule `CC[C@H]1OC(=O)[C@H](C)[C@@H](O[C@H]2C[C@@](C)(OC)[C@@H](O)[C@H](C)O2)[C@H](C)[C@@H](O[C@@H]2O[C@H](C)C[C@H](N(C)C)[C@H]2O)[C@](C)(O)C[C@@H](C)C(=O)[C@H](C)[C@@H](O)[C@]1(C)O` [ERYTHROMYCIN] has an MIC (Campylobacter jejuni [1]) of 8 µg/mL (≈ 10.9 µM), an MIC (Campylobacter jejuni [2]) of 64 µg/mL (≈ 87.2 µM) and an MIC (Campylobacter jejuni [3]) of 64 µg/mL (≈ 87.2 µM). It also gave an MIC (Campylobacter jejuni [4]) of 512 µg/mL (≈ 698 µM), an MIC (Campylobacter jejuni [5]) of 64 µg/mL (≈ 87.2 µM) and an MIC (Campylobacter jejuni [6]) of over 512 µg/mL. It also gave an MIC (Campylobacter jejuni [7]) of 16 µg/mL (≈ 21.8 µM), an MIC (Campylobacter jejuni [8]) of 32 µg/mL (≈ 43.6 µM) and an MIC (Campylobacter jejuni [9]) of 32 µg/mL (≈ 43.6 µM). The MIC (Campylobacter jejuni [10]) was 8 µg/mL (≈ 10.9 µM), the MIC (Campylobacter jejuni [11]) was 32 µg/mL (≈ 43.6 µM) and the MIC (Campylobacter jejuni [12]) was 32 µg/mL (≈ 43.6 µM). For the same molecule, the MIC (Campylobacter jejuni [13]) was 8 µg/mL (≈ 10.9 µM), the MIC (Campylobacter jejuni [14]) was 64 µg/mL (≈ 87.2 µM) and the MIC (Campylobacter jejuni [15]) was 8 µg/mL (≈ 10.9 µM). The “fold change (FC)” value (Campylobacter jejuni [16]) was 8, the MIC (Campylobacter jejuni [17]) was 16 µg/mL (≈ 21.8 µM) and the MIC (Campylobacter jejuni [18]) was 1 µg/mL (≈ 1.36 µM). It also gave an MIC (Campylobacter jejuni [19]) of 32 µg/mL (≈ 43.6 µM), an MIC (Campylobacter jejuni [20]) of 128 µg/mL (≈ 174 µM) and an MIC (Campylobacter jejuni [21]) of 64 µg/mL (≈ 87.2 µM). For the same molecule, the MIC (Campylobacter jejuni [22]) was 8 µg/mL (≈ 10.9 µM), the MIC (Campylobacter jejuni [23]) was 8 µg/mL (≈ 10.9 µM) and the MIC (Campylobacter jejuni [24]) was over 512 µg/mL. The MIC (Campylobacter jejuni [25]) was 64 µg/mL, the MIC (Campylobacter jejuni [26]) was 32 µg/mL (≈ 43.6 µM) and the MIC (Campylobacter jejuni [27]) was 64 µg/mL (≈ 87.2 µM). The MIC (Campylobacter jejuni [28]) was 256 µg/mL (≈ 349 µM), the MIC (Campylobacter jejuni [29]) was 16 µg/mL (≈ 21.8 µM) and the MIC (Campylobacter jejuni [30]) was 8 µg/mL (≈ 10.9 µM). It also gave an MIC (Campylobacter jejuni [31]) of 8 µg/mL (≈ 10.9 µM), an MIC (Campylobacter jejuni [32]) of 256 µg/mL (≈ 349 µM) and an MIC (Campylobacter jejuni [33]) of 8 µg/mL (≈ 10.9 µM). For the same molecule, the MIC (Campylobacter jejuni [34]) was 1 µg/mL (≈ 1.36 µM), the MIC (Campylobacter jejuni [35]) was 8 µg/mL (≈ 10.9 µM) and the MIC (Campylobacter jejuni [36]) was 256 µg/mL (≈ 349 µM). The MIC (Campylobacter jejuni [37]) was 32 µg/mL (≈ 43.6 µM), the MIC (Campylobacter jejuni [38]) was 16 µg/mL (≈ 21.8 µM) and the MIC (Campylobacter jejuni [39]) was 32 µg/mL (≈ 43.6 µM).
